# From paper PMC11096083 (Cancer research, 2024)
# Key:
# HSD3B7 [1] = biological target: T1, HSD3B7 (Homo sapiens, UniProt Q9H2F3); assay: recombinant HSD3B7 NAD; type: biochemical
# T1 sequence (Q9H2F3 1-369): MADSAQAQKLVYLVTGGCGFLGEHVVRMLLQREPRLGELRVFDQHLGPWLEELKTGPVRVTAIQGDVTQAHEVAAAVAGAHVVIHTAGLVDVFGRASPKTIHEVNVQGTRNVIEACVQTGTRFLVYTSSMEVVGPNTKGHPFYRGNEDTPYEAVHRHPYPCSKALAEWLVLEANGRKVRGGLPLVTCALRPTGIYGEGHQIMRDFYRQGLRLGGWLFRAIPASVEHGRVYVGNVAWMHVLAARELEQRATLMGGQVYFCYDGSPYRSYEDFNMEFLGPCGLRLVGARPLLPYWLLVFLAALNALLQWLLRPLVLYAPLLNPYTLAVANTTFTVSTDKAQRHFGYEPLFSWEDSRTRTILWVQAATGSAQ
# HSD3B7 [2] = biological target: T1, HSD3B7; assay: recombinant HSD3B7 activity by NAD+ reduction to NADH; type: biochemical
Compound,IC50 (HSD3B7 [1]),recombinant HSD3B7 activity by NAD+ reduction to NADH (fluorescence) (HSD3B7 [2])
COc1ccc(-c2cc(=O)c3c(O)cc(O)c(-c4cc(-c5cc(=O)c6c(O)cc(O)cc6o5)ccc4OC)c3o2)cc1 [isoginkgetin],low micromolar,
NC(=O)c1ccc[n+]([C@@H]2O[C@H](COP(=O)([O-])OP(=O)(O)OC[C@H]3O[C@@H](n4cnc5c(N)ncnc54)[C@H](O)[C@@H]3O)[C@@H](O)[C@H]2O)c1 [NAD+],,"recombinant human HSD3B7 protein, whose enzymatic activity was assessed by monitoring fluorescence induced by NAD^+ reduction to NADH"
CC1=C(O)C(=O)C=C2C1=CC=C1[C@@]2(C)CC[C@@]2(C)[C@@H]3C[C@](C)(C(=O)O)CC[C@]3(C)CC[C@]12C [celastrol],low micromolar,
